Assay results: patent US8703483B2, “Reagents and methods for using human embryonic stem cells to evaluate toxicity of pharmaceutical compounds and other chemicals” (Wisconsin Alumni Research Foundation, priority 2006, dated 2014)

Test system: human embryonic stem cells
Test: Metabolite profiling (LC/ESI-TOF mass spectrometry) of extracellular media of hESCs treated with alcohol
Format: cell-based
Details: ETOH 0.1; 4 D
Text: Binned masses were annotated in silico by querying the neutral masses in several different databases. These databases included Metlin, Biological Magnetic Resonance Data Bank (BMRB), NIST Chemistry WebBook, and the Human Metabolome Database. A mass was considered identified when its neutral mass was within 10 ppm of a known compound annotated in one of the databases listed above.

CCO [ETOH]
Fold: 2-Oxo-4-methylthiobutanoic acid, mass 148.016, RT 52.88652: −2.444 fold | Fold: 3-(2,5-Dimethoxy phenylpropionic acid, mass 210.0922, RT 36.18938): 1.864 fold | Fold: (+)-Eudesmin, mass 386.1724, RT 51.65871: 5.309 fold | Fold: (+/−)-2-(4′-Isobutylphenyl)propionitrile, mass 187.1348, RT 46.31086: 2.329 fold | Fold: Acetylcarnitine / L-Glutamic acid n-butyl ester, mass 203.1138, RT 9.675726: −1.707 fold | Fold: Benzenemethanol, 2-(2-aminopropoxy)-3-methyl- / a-[1-(ethylamino)ethyl]-p-hydroxy-Benzyl alcohol, mass 195.124, RT 31.19917: −2.225 fold | Fold: Benzenemethanol, 2-(2-aminopropoxy)-3-methyl- / a-[1-(ethylamino)ethyl]-p-hydroxy-Benzyl alcohol, mass 195.1253, RT 38.99212: 2.159 fold | Fold: Homogentisic acid / Vanillic acid, mass 168.0434, RT 19.18355: −1.468 fold | Fold: L-Oleandrosyl-oleandolide, mass 530.314, RT 23.87065: 1.965 fold | Fold: L-Urobilinogen;, mass 596.3543, RT 25.14927: 1.396 fold | Fold: N-Methyl-2-pyrrolidinone, mass 99.0689, RT 15.48433: 1.434 fold | Fold: Neu5Acalpha2-3Galbeta1-4Glcbeta-Sp / Neu5Acalpha2-6Galbeta1-4Glcbeta-Sp, mass 702.2497, RT 40.84822: −2.769 fold | Fold: Pantothenol / dimethylbutanamide;, mass 205.1304, RT 6.747279: −1.2578 fold | Fold: Phenanthrene-9,10-oxide, mass 194.073, RT 5.935143: −1.389 fold | Fold: Unknown, mass 99.1043, RT 52.01225: 2.703 fold | Fold: Unknown, mass 120.2112, RT 13.40565: 4.847 fold | Fold: Unknown, mass 131.076, RT 14.35336: 3.629 fold | Fold: Unknown, mass 197.1769, RT 48.37093: −3.119 fold | Fold: Unknown, mass 243.1089, RT 17.7027: −2.181 fold | Fold: Unknown, mass 268.2487, RT 42.3656: −1.55 fold | Fold: Unknown, mass 272.16, RT 43.99398: 2.187 fold | Fold: Unknown, mass 292.1862, RT 37.97297: 2.239 fold | Fold: Unknown, mass 293.9773, RT 4.014175: 1.939 fold | Fold: Unknown, mass 295.1521, RT 8.967061: 1.513 fold | Fold: Unknown, mass 298.174, RT 50.75387: −3.002 fold | Fold: Unknown, mass 300.1147, RT 18.88505: 2.686 fold | Fold: Unknown, mass 301.1345, RT 7.719471: 6.649 fold | Fold: Unknown, mass 312.1341, RT 15.22357: −2.015 fold | Fold: Unknown, mass 315.6732, RT 26.51229: 2.015 fold | Fold: Unknown, mass 325.2711, RT 18.82373: −1.756 fold | Fold: Unknown, mass 325.2714, RT 20.94557: −2.074 fold | Fold: Unknown, mass 353.2765, RT 3.85935: 2.622 fold | Fold: Unknown, mass 357.1781, RT 25.16993: 2.217 fold | Fold: Unknown, mass 359.1532, RT 24.01428: 1.536 fold | Fold: Unknown, mass 360.1321, RT 18.50245: 2.11 fold | Fold: Unknown, mass 362.2787, RT 83.72506: 2.916 fold | Fold: Unknown, mass 368.2122, RT 27.98054: 1.695 fold | Fold: Unknown, mass 379.1771, RT 20.76168: 1.54 fold | Fold: Unknown, mass 383.1721, RT 15.20829: 1.915 fold | Fold: Unknown, mass 384.2127, RT 23.38956: −2.556 fold | Fold: Unknown, mass 387.0812, RT 19.97914: −1.977 fold | Fold: Unknown, mass 388.2349, RT 46.346: 1.947 fold | Fold: Unknown, mass 403.1978, RT 51.66325: 3.116 fold | Fold: Unknown, mass 405.2001, RT 30.70733: 2.668 fold | Fold: Unknown, mass 408.1636, RT 16.21743: 1.966 fold | Fold: Unknown, mass 417.2338, RT 33.09057: 2.033 fold | Fold: Unknown, mass 417.2386, RT 21.14975: −1.98 fold | Fold: Unknown, mass 420.1862, RT 26.77212: 3.283 fold | Fold: Unknown, mass 429.2533, RT 18.03482: −1.808 fold | Fold: Unknown, mass 429.2535, RT 30.24237: 1.805 fold | Fold: Unknown, mass 431.2501, RT 35.58196: 1.532 fold | Fold: Unknown, mass 440.0223, RT 4.808947: −1.528 fold | Fold: Unknown, mass 443.2381, RT 24.13915: 2.986 fold | Fold: Unknown, mass 443.3216, RT 67.0705: 1.752 fold | Fold: Unknown, mass 444.2237, RT 51.58546: 2.131 fold | Fold: Unknown, mass 460.9391, RT 33.51823: −4.518 fold | Fold: Unknown, mass 467.3804, RT 46.51446: 2.068 fold | Fold: Unknown, mass 468.2002, RT 51.6158: 1.875 fold | Fold: Unknown, mass 471.7804, RT 30.72707: −2.836 fold | Fold: Unknown, mass 478.2761, RT 30.28867: 1.699 fold | Fold: Unknown, mass 487.3472, RT 66.73744: 2.931 fold | Fold: Unknown, mass 489.2127, RT 21.72729: −1.51 fold | Fold: Unknown, mass 510.8202, RT 31.22083: 2.488 fold | Fold: Unknown, mass 525.3161, RT 34.57864: 1.551 fold | Fold: Unknown, mass 526.2773, RT 51.73057: 3.446 fold | Fold: Unknown, mass 531.2876, RT 32.50661: 2.106 fold | Fold: Unknown, mass 531.3191, RT 35.58454: −1.252 fold | Fold: Unknown, mass 531.3736, RT 66.31491: 3.863 fold | Fold: Unknown, mass 541.3274, RT 32.24719: 2.162 fold | Fold: Unknown, mass 545.3029, RT 17.6573: −1.395 fold | Fold: Unknown, mass 554.8471, RT 31.891: 2.038 fold | Fold: Unknown, mass 555.2406, RT 15.78741: 1.835 fold | Fold: Unknown, mass 555.8505, RT 5.742094: −1.289 fold | Fold: Unknown, mass 556.3971, RT 88.02533: −3.118 fold | Fold: Unknown, mass 559.8329, RT 31.97996: −1.7213 fold | Fold: Unknown, mass 574.3397, RT 24.7039: 1.584 fold | Fold: Unknown, mass 574.3427, RT 31.71105: 1.75 fold | Fold: Unknown, mass 576.096, RT 47.90467: 1.361 fold | Fold: Unknown, mass 589.6938, RT 35.26918: 1.82 fold | Fold: Unknown, mass 591.3789, RT 31.54325: 1.578 fold | Fold: Unknown, mass 603.3535, RT 32.67372: −2.63 fold | Fold: Unknown, mass 619.3409, RT 33.68866: 1.857 fold | Fold: Unknown, mass 620.8861, RT 32.73907: 2.249 fold | Fold: Unknown, mass 635.4065, RT 32.08734: 1.393 fold
